Results as given in publication PMC8533211, “Computationally Assisted Lead Optimization of Novel Potent and Selective MAO-B Inhibitors” (Biomedicines, 2021).
Entries after “also recorded” stand apart in the source; their conditions may differ. Like-named read-outs stand apart in the source and are kept apart here.

Legend:
human recombinant MAO B = conditions: cited from earlier work; for IC50: human recombinant, kynuramine
Monoamine Oxidase A = molecular target: T1, Monoamine Oxidase A (Homo sapiens, UniProt P21397); test: MAO-A inhibition kinetics (Ki, type of inhibition); format: biochemical
T1 sequence (P21397 1-527): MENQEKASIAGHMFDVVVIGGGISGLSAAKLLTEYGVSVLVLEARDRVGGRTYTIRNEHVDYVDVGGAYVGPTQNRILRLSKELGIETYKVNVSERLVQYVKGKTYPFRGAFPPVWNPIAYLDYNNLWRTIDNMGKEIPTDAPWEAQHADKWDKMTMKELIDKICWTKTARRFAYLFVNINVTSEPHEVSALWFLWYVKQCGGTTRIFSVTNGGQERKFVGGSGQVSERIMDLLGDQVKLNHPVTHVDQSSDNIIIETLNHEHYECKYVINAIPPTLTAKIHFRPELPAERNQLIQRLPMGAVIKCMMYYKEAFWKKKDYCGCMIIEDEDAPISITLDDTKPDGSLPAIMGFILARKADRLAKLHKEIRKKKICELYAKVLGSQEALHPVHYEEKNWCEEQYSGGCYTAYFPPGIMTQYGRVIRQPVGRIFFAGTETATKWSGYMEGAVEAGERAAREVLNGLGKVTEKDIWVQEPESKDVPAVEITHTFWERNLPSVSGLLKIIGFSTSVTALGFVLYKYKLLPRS
Protocol: (§1) The controls without inhibitor were also run simultaneously. Three sets of assays were performed at varying concentrations of the substrate for each experiment: one control without inhibitor and the others at two fixed concentrations of the inhibitor. The data were analyzed by double reciprocal Lineweaver–Burk plots to determine Ki (i.e., inhibition/binding affinity) values and the kinetic data, namely Km, Vmax, and Ki values, were computed by SigmaPlot 12 [9].

human recombinant MAO-A = molecular target: T2, human recombinant MAO-A (Homo sapiens, UniProt P21397); test: kynuramine oxidation deamination assay, MAO-A inhibition (IC50); format: biochemical; conditions: kynuramine 80 μM, mean ± S.D. of triplicate
T2 construct: purchased BD Biosciences (Bedford, MA, USA)
T2 sequence (P21397 1-527): T1 sequence (P21397 1-527)
Protocol: (§2) A fixed single concentration of kynuramine substrate and varying concentrations of the test inhibitor were used to determine the IC50 values. The kynuramine concentrations for MAO-A and -B were 80 μM and 50 μM, respectively. These concentrations of kynuramine were twice the apparent KM value for substrate binding. […] Enzymatic reactions were performed in 50 μL of the assay mixture containing 0.1 M potassium phosphate buffer, pH 7.4. […] Reactions were initiated by the addition of 12.50 μL of MAO-A (to 5 μg/mL) or -B (to 10 μg/mL). The plate was incubated for 20 min at 37 °C, and the enzymatic reaction was terminated by the addition of 18.8 μL of 2N NaOH. Formation of the enzyme product, 4-hydroxyquinoline, was measured fluorometrically using a SpectraMax M5 fluorescence plate reader (Molecular Devices, Sunnyvale, CA, USA) with excitation (320 nm) and emission (380 nm) wavelengths and the Soft Max Pro program. The inhibition effects of enzyme activity were calculated as percent of product formation compared to the corresponding control (enzyme–substrate reaction) without inhibitors. Controls included the assays where the enzyme or the substrate was added after terminating the reaction to determine the interference with the fluorescence measurements. The IC50 values for MAO-A and -B inhibition were calculated from the concentration-dependent inhibition curves using XLFit® software.

human recombinant MAO-B [1] = molecular target: T3, human recombinant MAO-B (Homo sapiens, UniProt P27338); test: MAO-B inhibition kinetics, Lineweaver–Burk (Ki, type of inhibition); format: biochemical; design: purchased BD Biosciences (Bedford, MA, USA); conditions: for Ki: kynuramine 1.90–500 μM, mean ± S.D. of triplicate experiments, read-out: Monoamine Oxidase B Ki
T3 sequence (P27338 1-520): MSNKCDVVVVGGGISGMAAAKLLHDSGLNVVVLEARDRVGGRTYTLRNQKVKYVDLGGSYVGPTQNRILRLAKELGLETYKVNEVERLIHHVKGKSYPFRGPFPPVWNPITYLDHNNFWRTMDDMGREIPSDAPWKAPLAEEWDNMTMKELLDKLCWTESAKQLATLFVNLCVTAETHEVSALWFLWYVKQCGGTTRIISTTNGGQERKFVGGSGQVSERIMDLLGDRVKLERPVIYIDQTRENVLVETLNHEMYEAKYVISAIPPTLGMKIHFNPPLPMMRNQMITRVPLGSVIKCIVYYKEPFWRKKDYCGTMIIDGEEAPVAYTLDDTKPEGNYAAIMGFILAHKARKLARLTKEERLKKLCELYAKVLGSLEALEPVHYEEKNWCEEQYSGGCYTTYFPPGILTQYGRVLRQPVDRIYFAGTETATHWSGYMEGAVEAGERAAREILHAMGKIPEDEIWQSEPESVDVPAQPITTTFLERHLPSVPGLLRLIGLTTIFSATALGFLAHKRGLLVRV
Protocol: as §1
Modified flavonoids (1–4) c were evaluated against MAO-B at varying concentrations of kynuramine, a nonselective substrate, to investigate the nature of inhibition of the enzymes. Based on dose–concentration inhibition, three to five concentrations (below and above the concentration of IC50 values) were selected for the inhibition kinetics experiment.

human recombinant MAO A = conditions: cited from earlier work
MAO-A = tested on: MAO-A; design: method as in PMID 32869630; conditions: chemiluminescent assay, MAO-Glo kit; cited from earlier work
MAO-B = tested on: MAO-B; design: method as in PMID 32869630; conditions: chemiluminescent assay, MAO-Glo kit; cited from earlier work
human recombinant MAO-B [2] = molecular target: T3, human recombinant MAO-B; test: time-dependent inhibition of MAO-B; conditions: read-out: MAO-B enzyme inhibition in time-dependent assay
Protocol: The controls, without inhibitors, were also run simultaneously. Activities of the enzyme were determined as described above, and the percentage of the remaining enzyme activity was plotted against the pre-incubation time to determine time-dependent inhibition.
The control enzyme without inhibitor was also run concurrently. For validation, the MAO- B standards were run simultaneously for the time-dependent assay.

human recombinant MAO-B [3] = molecular target: T3, human recombinant MAO-B; test: kynuramine oxidation deamination assay, MAO-B inhibition (IC50); format: biochemical; design: purchased BD Biosciences (Bedford, MA, USA); conditions: for Selectivity Index MAO-A/B: ratio of IC50 MAO-A / MAO-B; for IC50: recombinant human MAO-B, kynuramine 50 μM, mean ± S.D. of triplicate
Protocol: as §2, with “The kynuramine concentrations for MAO-A and -B were 80 μM and 50 μM, respectively.” left out

human recombinant MAO-B [4] = molecular target: T3, human recombinant MAO-B; test: reversibility of binding by equilibrium dialysis of the enzyme–inhibitor complex; conditions: for reversibility of binding/inhibition of MAO-B: equilibrium dialysis; for MAO-B enzyme activity recovered after dialysis: 1.5 µM inhibitor, dialyzed overnight at 4 °C, 25 mM buffer pH 7.4
Protocol: Recovery of the catalytic activity of the enzyme was determined by assay of the enzyme activity before and after equilibrium-dialysis. […] After 20 min of incubation at 37 °C, the reaction was stopped by chilling the tubes in the ice bath. All the samples were dialyzed against potassium phosphate buffer (25 mM; pH 7.4) at 4 °C for 14–18 h (with three buffer changes). The control enzyme (without inhibitor) was also run simultaneously using the same procedure and the activity of the enzyme was determined before and after the dialysis.
MAO-B enzyme was incubated with the highest concentration of the analogs for 20 min at 37 °C to allow for binding of the inhibitor with the enzyme and formation of the enzyme–inhibitor complex. Then, the mixtures of the enzyme–inhibitor complex were dialyzed overnight at 4 °C using 25 mM KHPO4 (pH 7.4) buffer. The enzyme activities were examined before and after dialysis.

human recombinant MAO-B [5] = molecular target: T3, human recombinant MAO-B; design: purchased BD Biosciences (Bedford, MA, USA); conditions: cited from earlier work
[6] = tested on: MAO-B (rat liver mitochondrial fraction); design: method as in PMID 18372132; conditions: cited from earlier work
[7] = tested on: MAO-A (rat liver mitochondrial fraction); design: method as in PMID 18372132; conditions: chromogenic solution; cited from earlier work

| IC50 (human recombinant MAO-A) | Monoamine Oxidase B Type of Inhibition (human recombinant MAO-B [1]) | selectivity towards MAO-B compared with MAO-A (human recombinant MAO-B [3]) | Selectivity Index MAO-A/B (human recombinant MAO-B [3]) | IC50 (human recombinant MAO-B [3]) | Ki (human recombinant MAO-B [1]) | Compound | IC50 (human recombinant MAO B) | IC50 (human recombinant MAO A; human recombinant, kynuramine) | reversibility of binding/inhibition of MAO-B (human recombinant MAO-B [4]) | further results |
| --- | --- | --- | --- | --- | --- | --- | --- | --- | --- | --- |
| 105 ± 1.4 nM | competitive/reversible | – | – | – | – | COc1ccc(-c2cc(=O)c3c(O)cc(O)cc3o2)cc1 [Acacetin] | 49 ± 0.7 nM | 121 ± 1 nM | – | Monoamine Oxidase A Type of Inhibition (Monoamine Oxidase A): competitive/reversible; Ki (Monoamine Oxidase A; mean ± S.D. of triplicate experiments): 30 ± 1.8 nM |
| – | – | – | – | – | – | O=c1cc(-c2ccc(O)c(O)c2)oc2cc(O)cc(O)c12 [Luteolin] | – | – | – | IC50 (MAO-A): 8570 ± 470 nM; IC50 (MAO-B): > 100000 nM |
| 62700 ± 5210 nM | mixed/irreversible | 1279 fold | 1279.6 | 49 ± 1.4 nM | 68 ± 7.1 nM | C#CCOc1ccc(-c2cc(=O)c3c(O)cc(OC)cc3o2)cc1 [Compound 4c, 5-Hydroxy-7-methoxy-2-(4-(prop-2-yn-1-yloxy)phenyl)-4H-chromen-4-one] | – | – | irreversible MAO-B inhibitors | inhibition at 0.4 µM (human recombinant MAO-B [2]): 70 to 80% |
| – | – | – | – | – | – | COc1ccc(-c2cc(=O)c3c(O)cc(OC)cc3o2)cc1 [Acacetin 7-O-methyl ether] | 198 ± 1 nM | > 100000 nM | – | Selectivity Index MAO-A/B (human recombinant MAO B): >505.05; selectivity index (SI) for MAO A/B (human recombinant MAO B): > 505 fold; Monoamine Oxidase B Type of Inhibition (human recombinant MAO-B [5]): competitive/partially reversible |
| – | – | – | – | – | – | O=C1C[C@@H](c2ccc(O)cc2)Oc2cc(O)cc(O)c21 [Naringenin] | – | – | – | IC50 ([6]; chromogenic solution): 288000 ± 18000 nM; Selectivity Index MAO-A/B [6]: 3.32; IC50 [7]: 955000 ± 129000 nM |
| – | – | – | – | – | – | O=c1c(O)c(-c2ccc(O)c(O)c2)oc2cc(O)cc(O)c12 [Quercetin] | 28400 ± 5410 nM | – | – | Selectivity Index MAO-A/B (human recombinant MAO B): 0.05; IC50 (human recombinant MAO A): 1520 ± 90 nM |
| 30740 ± 23 nM | mixed/reversible | 1921 fold | 1921.3 | 16 ± 7 nM | 52 ± 3.1 nM | COc1cc(O)c2c(=O)cc(-c3ccc(OC(C)C)cc3)oc2c1 [Compound 2c, 5-Hydroxy-2-(4-isopropoxyphenyl)-7-methoxy-4H-chromen-4-one] | – | – | reversible inhibition | inhibition at 0.3 µM (human recombinant MAO-B [2]): 30 to 50%; MAO-B enzyme activity recovered after dialysis (human recombinant MAO-B [4]): 66%; reversibility of binding/inhibition of MAO-B (human recombinant MAO-B [4]; listed as O-isopropyl): reversible MAO-B inhibitors |
| 48800 ± 2010 nM | mixed/partially reversible | 1478 fold | 1478.2 | 33 ± 4.2 nM | 43 ± 3.8 nM | CCCOc1ccc(-c2cc(=O)c3c(O)cc(OC)cc3o2)cc1 [Compound 1c, 5-Hydroxy-7-methoxy-2-(4-propoxyphenyl)-4H-chromen-4-one] | – | – | partially reversible; also recorded: reversible inhibition | inhibition at 0.1 µM (human recombinant MAO-B [2]): 70 to 80%; MAO-B enzyme activity recovered after dialysis (human recombinant MAO-B [4]): 30%; reversibility of binding/inhibition of MAO-B (human recombinant MAO-B [4]; listed as O-propyl): reversible MAO-B inhibitors |
| – | – | – | – | – | – | O=c1cc(-c2ccc(O)cc2)oc2cc(O)cc(O)c12 [Apigenin] | 1120 ± 270 nM | 640 ± 110 nM | – | – |

| Compound | IC50 (human recombinant MAO-A) | Monoamine Oxidase B Type of Inhibition (human recombinant MAO-B [1]) | selectivity towards MAO-B compared with MAO-A (human recombinant MAO-B [3]) | Selectivity Index MAO-A/B (human recombinant MAO-B [3]) | IC50 (human recombinant MAO-B [3]) | Ki (human recombinant MAO-B [1]) | IC50 (human recombinant MAO B) | IC50 (human recombinant MAO A; human recombinant, kynuramine) | reversibility of binding/inhibition of MAO-B (human recombinant MAO-B [4]) | further results |
| --- | --- | --- | --- | --- | --- | --- | --- | --- | --- | --- |
| COc1cc(O)c2c(=O)cc(-c3ccc(OCC(C)C)cc3)oc2c1 [Compound 3c, 5-Hydroxy-2-(4-Isobutoxyphenyl)7-methoxy-4H-chromen-4-one] | > 100000 nM | mixed/irreversible | > 3000 fold | >3225.8 | 31 ± 7 nM | 37 ± 9.5 nM | – | – | irreversible MAO-B inhibitors | inhibition at 0.3 µM (human recombinant MAO-B [2]): 70 to 80%; selectivity towards MAO-B compared with MAO-A (human recombinant MAO-B [3]; listed as O-isobutyl): > 3225 fold |
